PubChem BioAssay (NCI)
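All cell lines were grown in 96-well plates and treated with compound for 48 hours. GI50: concentration for 50% inhibition of growth. TGI denotes the concentration required for complete inhibition of growth.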

Legend:
Assay in all cases: NCI tumour cell line growth inhibition, 48 h
[1] = system: HCC-2998 colon
[2] = system: HCT-116 colon
[3] = system: LOX IMVI melanoma
[4] = system: MALME-3M melanoma
[5] = system: NCI-H460 lung
[6] = system: OVCAR-3 ovarian
[7] = system: SF-539 CNS
[8] = system: SK-MEL-28 melanoma
[9] = system: SN12C renal
[10] = system: UO-31 renal

Row | SMILES | GI50 [1] [µM] | TGI [1] [µM] | GI50 [2] [µM] | TGI [2] [µM] | GI50 [3] [µM] | TGI [3] [µM] | GI50 [4] [µM] | TGI [4] [µM] | GI50 [5] [µM] | TGI [5] [µM] | GI50 [6] [µM] | TGI [6] [µM] | GI50 [7] [µM] | TGI [7] [µM] | GI50 [8] [µM] | TGI [8] [µM] | GI50 [9] [µM] | TGI [9] [µM] | GI50 [10] [µM] | TGI [10] [µM]
1 | O=C(/C=C\Sc1nccc(C(F)(F)F)n1)c1ccc(Br)cc1 | 12.5 | 32.6 | 12.8 | 25.5 | 13.7 | 27.2 | 16.9 | 43.9 | > 100 | > 100 | 14.9 | 30.2 | 23.3 | 69.4 | 16 | 32.1 | 18.8 | 43.1 | 18.7 | 34
2 | O=C(Cn1ccnc1[N+](=O)[O-])NCC(F)(F)C(F)(F)F | > 100 | > 100 | > 100 | > 100 | > 100 | > 100 | > 100 | > 100 | > 100 | > 100 | > 100 | > 100 | > 100 | > 100 | > 100 | > 100 | > 100 | > 100 | > 100 | > 100
3 | Nc1nc(N)c(-c2ccc(Cl)cc2)c(CCC(=O)Nc2cccc(C(F)(F)F)c2)n1 |  | > 100 |  | > 100 |  | > 100 |  | > 100 |  | > 100 |  | > 100 |  | > 100 |  | > 100 |  | > 100 |  | > 100
4 | CN(C)CC1CCn2c(c(C3=C(c4cn(C)c5ccccc45)C(=O)NC3=O)c3ccccc32)C1 (centres undefined) | 4.65 | 8.93 | 3.24 | 6.75 | 3.86 | 7.83 | 3.59 | 7.31 | 4.57 | 8.68 | 3.91 | 8.15 | 3.87 | 7.49 | 4.59 | 8.74 | 3.89 | 8.11 | 2.69 | 5.96
5 | CC(=O)OCC1OC(S[As](C)C)C(OC(C)=O)C1OC(C)=O (centres undefined) | 0.255 | 1.76 | 0.226 | 1.38 | 0.257 | 0.991 | 0.107 | 0.696 | 2.36 | 14.4 | 0.0391 | 0.151 | 0.226 | 0.907 | 0.446 | 2.73 | 0.33 | 1.51 | 0.122 | 1.02
6 | Cc1c(Cl)ccc2c1NC(=O)C2(O)C1Cc2ccccc2C1=O (centres undefined) |  | > 100 |  | > 100 |  | > 100 |  | > 100 |  | > 100 |  | > 100 |  | > 100 |  | > 100 |  | > 100 |  | > 100
7 | COc1cccc2c1c1nc3cc(C)c(C)cc3nc1n2CCN(C)C | 1.42 | 3.65 | 0.426 | 10.3 | 1.04 | 8.7 | 1.14 | 2.62 | 1.09 | 10.9 | 2.22 |  | 1.92 | 5.48 | 1.94 | 4.23 | 1.66 | 11.2 | 0.337 | 2.37
8 | COc1ccc(F)cc1C(=O)c1cnc(NC2CCN(S(C)(=O)=O)CC2)nc1N | 3.55 | > 25 | 1.21 | > 25 | 2.09 | > 25 | 3.57 | > 16.8 | 0.783 | > 25 | 4.15 | 14.6 | 3.29 | 7.77 | 3.38 | > 16.4 | 4.92 | > 25 | 3.69 | > 18.6
9 | COc1ccc2c(c1)Cc1c-2c(NN)nc2ccccc12 | 28.4 | > 100 | 24.4 | 75.7 | 21.6 | 78.8 | > 100 | > 100 | 14.9 | 69 | 16.5 | 38.4 | 36.3 | > 100 | 60.5 | > 100 | 40.3 | > 100 | 25.7 | > 100
10 | Cc1ccc(S(=O)(=O)n2cc(C(=O)C(=O)Nc3ccncc3)c3ccccc32)cc1 | 4.25 | > 100 | 0.465 | 23.1 | 1.04 | > 100 | 43 | > 100 | 7.05 | 96.8 | 0.765 | 16.7 | 1.56 | 6.84 | 4.17 | > 100 | 4.79 | > 100 | 5.45 | > 100
11 | O=C(CC(=O)C(F)(F)F)c1csc2ccccc12 |  | > 100 |  | > 100 |  | > 100 |  | 67.6 |  | > 100 |  | > 100 |  | > 100 |  | > 100 |  | 75.4 |  | > 100
